“Also recorded” adds a separate entry of the source. Structures can show the parent of a compound that is named as a salt. Where two headings read alike, the source gives them in different places.
Key:
[1] = cited from earlier work; for DILI Cat (DILI category): human, in vivo; for DILI Sev (DILI severity score from the LTKB of the FDA): negative number: withdrawn from the market, higher positive numbers, greater DILI concern
iMPCCs [2] = test: Drug-drug interaction: acetaminophen with BSO in iMPCCs; assay type: cell-based, human; details: APAP 25·Cmax and 50·Cmax, BSO 200 μM
[3] = tested on: primary hepatocytes (HUM4011, Triangle Research Labs); details: human
[4] = tested on: iMPCCs (iHep micropatterned co-cultures); details: human
[5] = tested on: primary hepatocyte sandwich culture; details: human, cited from earlier work
[6] = tested on: iCCs (confluent monolayer cultures of iHeps); details: human; for Toxicity call in iCCs: 6 days
iMPCCs [7] = test: 8-day drug toxicity study in iMPCCs (albumin and urea); details: 8 days, multiple doses
[8] = tested on: primary human hepatocytes in MPCCs; details: cited from earlier work
[9] = total human plasma concentration; cited from earlier work
[10] = tested on: iMPCCs (iHep micropatterned co-cultures); test: Drug toxicity screening in iMPCCs (albumin, ATP, urea; binary decision and TC50); details: interpolated concentration at which activity decreases by 50% of DMSO-only controls
CYP1A2 = CYP1A2 induction in iMPCCs (7-ethoxyresorufin O-dealkylation); assay type: cell-based, human
CYP2C9 and CYP3A4 [11] = details: human
CYP2C9 and CYP3A4 [12] = test: Drug-mediated CYP enzyme induction in iCCs; details: rifampicin 25 μM, phenobarbital 1 mM, 4 days
For DILI Cat (DILI category) in this document: key: P1: DILI type 1, dose dependent (toxic); P2: DILI type 2, idiosyncratic (toxic); N1: not known to cause liver injury (nontoxic); N2: sporadic cases (<10) of liver injury reported but generally considered safe drug to use by doctors (nontoxic); O1: hepatotoxic in animals untested in humans (toxic); O2: elevated liver enzymes observed in humans but does not lead to frank liver toxicity (nontoxic).

C#CC1(O)CC[C@H]2[C@@H]3CCC4=CC(=O)CC[C@@H]4[C@H]3CC[C@@]21CC (mixture of isomers) [Norgestrel]
DILI Cat (DILI category) [1]: P2

CC(=O)Nc1ccc(O)cc1 [Acetaminophen]
Toxicity of APAP when combined with BSO (iMPCCs [2]): substantial increase in toxicity | DILI Cat (DILI category) [1]: P2

CC(=O)Nc1nnc(S(N)(=O)=O)s1 [Acetazolamide]
Toxicity call in another donor of primary hepatocytes [3]: false negative

CC(=O)Oc1ccccc1C(=O)O [Aspirin]
Model predictions iMPCC (binary decision of toxicity) ([4]; 6 days): − | DILI Cat (DILI category) [1]: O2

CCc1oc2ccccc2c1C(=O)c1cc(Br)c(O)c(Br)c1 [Benzbromarone]
DILI Cat (DILI category) [1]: P1

CNCCc1ccccn1.Cl.Cl [Betahistine 2HCl]
DILI Cat (DILI category) [1]: P2

O=C1CC2(CCCC2)CC(=O)N1CCCCN1CCN(c2ncccn2)CC1 [Buspirone]
DILI Cat (DILI category) [1]: N1

C[C@H](CS)C(=O)N1CCC[C@H]1C(=O)O [Captopril]
DILI Cat (DILI category) [1]: P2 | DILI Sev (DILI severity score from the LTKB of the FDA) [1]: 7

CCCCCCCCCCCCCCCC(=O)OC[C@@H](NC(=O)C(Cl)Cl)[C@H](O)c1ccc([N+](=O)[O-])cc1 [Chloramphenicol palmitate]
DILI Cat (DILI category) [1]: P2

O=C(O)c1cn(C2CC2)c2cc(N3CCNCC3)c(F)cc2c1=O [Ciprofloxacin HCl]
TC50 in iMPCCs, ATP ([4]; 6 days): 804.2 µM

CCN(CC)CCOc1ccc(C(=C(Cl)c2ccccc2)c2ccccc2)cc1 [Clomiphene citrate]
DILI Cat (DILI category) [1]: P2

O=P1(N(CCCl)CCCl)NCCCO1 (centres unmarked) [Cyclophosphamide]
Model predictions Sand (binary decision in sandwich cultures) ([5]; primary hepatocyte sandwich culture): −

CC(=O)O[C@]1(C(C)=O)CC[C@H]2[C@@H]3C=C(Cl)C4=CC(=O)[C@@H]5C[C@@H]5[C@]4(C)[C@H]3CC[C@@]21C [Cyproterone acetate]
Toxicity call in iMPCCs / iHeps ([4]; 6 days): toxic | Toxicity call in iCCs [6]: non-toxic | DILI Cat (DILI category) [1]: O1

C#C[C@]1(O)CC[C@H]2[C@@H]3CCC4=Cc5oncc5C[C@]4(C)[C@H]3CC[C@@]21C [Danazol]
DILI Cat (DILI category) [1]: P1 | DILI Sev (DILI severity score from the LTKB of the FDA) [1]: 8

Nc1ccc(S(=O)(=O)c2ccc(N)cc2)cc1 [Dapsone]
Toxicity call in another donor of primary hepatocytes [3]: false negative | DILI Cat (DILI category) [1]: P1

C[C@@H]1C[C@H]2[C@@H]3CCC4=CC(=O)C=C[C@]4(C)[C@@]3(F)[C@@H](O)C[C@]2(C)[C@@]1(O)C(=O)CO [Dexamethasone]
Model predictions iMPCC (binary decision of toxicity) ([4]; 6 days): − | DILI Cat (DILI category) [1]: N1

COc1ccc2c(c1)[C@]13CCCC[C@@H]1[C@H](C2)N(C)CC3 [Dextromethorphan HBr]
Model predictions ICC (binary decision of toxicity) [6]: − | Model predictions Sand (binary decision in sandwich cultures) [5]: − | Albumin and urea production after exposure (iMPCCs [7]): minimally affected

O=C(O)Cc1ccccc1Nc1c(Cl)cccc1Cl [Diclofenac]
TC50 in MPCCs, Urea [8]: 208.2 µM | DILI Cat (DILI category) [1]: P2 | DILI Sev (DILI severity score from the LTKB of the FDA) [1]: 7

C[C@]12CC[C@@H]3c4ccc(O)cc4CC[C@H]3[C@@H]1CCC2=O [Estrone]
DILI Cat (DILI category) [1]: P2

CNCCC(Oc1ccc(C(F)(F)F)cc1)c1ccccc1 (centres unmarked) [Fluoxetine]
DILI Cat (DILI category) [1]: N2 | DILI Sev (DILI severity score from the LTKB of the FDA) [1]: 3 | Cmax [9]: 49 nM

CC(C(=O)O)c1ccc(-c2ccccc2)c(F)c1 (centres unmarked) [Flurbiprofen]
Comparison of urea TC50 values, iHeps vs primary hepatocytes ([4]; 6 days): higher TC50 in iHeps | DILI Cat (DILI category) [1]: P2

NC(=O)NO [Hydroxyurea]
TC50 in iMPCCs, ATP ([4]; 6 days): 49358.3 µM

CN(C)CCCN1c2ccccc2CCc2ccccc21 [Imipramine HCl]
DILI Cat (DILI category) [1]: P2

NNC(=O)c1ccncc1 [Isoniazid]
Toxicity call in iMPCCs / iHeps ([4]; 6 days): toxic | Toxicity call in iCCs [6]: non-toxic | DILI Cat (DILI category) [1]: P1 | TC50 in iMPCCs, Albumin [10]: 6681.1 µM

O=C(O)/C=C\C(=O)O [Maleic acid]
Toxicity call in another donor of primary hepatocytes [3]: borderline positive

Cc1cccc(Nc2ccccc2C(=O)O)c1C [Mefenamic acid]
TC50 in iMPCCs, ATP ([4]; 6 days): 2551.9 µM | TC50 in iMPCCs, Urea ([4]; 6 days): 572.2 µM | DILI Cat (DILI category) [1]: P2

CNCCC=C1c2ccccc2CCc2ccccc21 [Nortriptyline HCl]
DILI Cat (DILI category) [1]: P2

CCOc1ccc(NC(C)=O)cc1 [Phenacetin]
Toxicity call in iCCs [6]: not identified as toxic

CCCCC1C(=O)N(c2ccccc2)N(c2ccccc2)C1=O [Phenylbutazone]
TC50 in MPCCs, ATP [8]: 7586.7 µM | DILI Cat (DILI category) [1]: P2

CN1C(C(=O)Nc2ccccn2)=C(O)c2ccccc2S1(=O)=O [Piroxicam]
Toxicity call in iMPCCs / iHeps ([4]; 6 days): toxic | DILI Cat (DILI category) [1]: P2

CC(=O)[C@H]1CC[C@H]2[C@@H]3CCC4=CC(=O)CC[C@]4(C)[C@H]3CC[C@]12C [Progesterone]
DILI Cat (DILI category) [1]: P2

NC(=O)c1cnccn1 [Pyrazinamide]
Toxicity call in iMPCCs / iHeps ([4]; 6 days): toxic | Toxicity call in iCCs [6]: non-toxic | DILI Cat (DILI category) [1]: P2

C=C[C@H]1C[N@@]2CC[C@H]1C[C@H]2[C@H](O)c1ccnc2ccc(OC)cc12 [Quinine]
TC50 in iMPCCs, ATP ([4]; 6 days): 182.2 µM | DILI Cat (DILI category) [1]: P2

CN(CCOc1ccc(CC2SC(=O)NC2=O)cc1)c1ccccn1 (centres unmarked) [Rosiglitazone]
DILI Cat (DILI category) [1]: N2

O=c1n(CCCN2CCN(c3cccc(Cl)c3)CC2)nc2ccccn12 [Trazodone HCl]
TC50 in iMPCCs, ATP ([4]; 6 days): 351.5 µM | DILI Cat (DILI category) [1]: P2

Cc1c(C)c2c(c(C)c1O)CCC(C)(COc1ccc(CC3SC(=O)NC3=O)cc1)O2 (centres unmarked) [Troglitazone]
DILI Cat (DILI category) [1]: P1

CC(=O)CC(c1ccccc1)c1c(O)c2ccccc2oc1=O (centres unmarked) [Warfarin]
Model predictions ICC (binary decision of toxicity) [6]: − | Model predictions Sand (binary decision in sandwich cultures) [5]: −

CCN(CC)C(=O)/C(C#N)=C/c1cc(O)c(O)c([N+](=O)[O-])c1 [entacapone]
Albumin secretions, time- and dose-dependent toxicity [4]: time- and dose-dependent toxicities

COc1ccc2[nH]c([S+]([O-])Cc3ncc(C)c(OC)c3C)nc2c1 (centres unmarked) [omeprazole]
CYP1A2 fold induction in iMPCCs as % of values in PHH-MPCCs (CYP1A2): ~70%

CCC1(c2ccccc2)C(=O)NC(=O)NC1=O [phenobarbital]
Fold induction of CYP450 transcripts in iMPCCs relative to PHH-MPCCs (CYP2C9 and CYP3A4 [11]): 60-130% | Induction in CYP450 functions in iMPCCs relative to PHH-MPCCs (CYP2C9 and CYP3A4 [11]): 44-79% | Induction of CYP450 (3A4, 2C9) transcripts and functions in PHH-MPCCs (CYP450 (3A4, 2C9)): induction | CYP induction response (functional activity) in iCCs (CYP2C9 and CYP3A4 [12]): induced functional activity; also recorded: severely blunted

Cc1ccc(C(=O)c2cc(O)c(O)c([N+](=O)[O-])c2)cc1 [tolcapone]
Albumin secretions, time- and dose-dependent toxicity [4]: time- and dose-dependent toxicities

Reference: patent US10717966B2, “Stem cell-derived hepatocytes in co-culture and uses thereof” (Colorado State University Research Foundation, priority 2014, dated 2020)
